Measurements from the supplement of paper PMC10307832.

Key:
Test in all cases: relative viability (nuclei count vs DMSO), 5 days (fraction); higher = more cells survive
ChaGo-K-1 = tested on: ChaGo-K-1
Summary of the method: (§1)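 The day after seeding in 1536-well plates, lung cancer cell lines were treated by pin tool with a single drug, or with a fixed anchor-drug dose together with five library-drug doses (not always all listed) in √10 steps. After 5 days, a combined fix-and-stain solution (final 0.05% Triton X-100, 1% formaldehyde, 1 ug/ml Hoechst) was added. Nuclei counted on 4× images gave relative viability as treated counts over vehicle counts, reported as the median of duplicate plates.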

EMC-BAC-2 = tested on: EMC-BAC-2
Summary of the method: as §1

EPLC-272H = tested on: EPLC-272H
Summary of the method: as §1

H3255 = tested on: H3255
Summary of the method: as §1

HCC-44 = tested on: HCC-44
Summary of the method: as §1

HCC-827 = tested on: HCC-827
Summary of the method: as §1

LCLC-103H = tested on: LCLC-103H
Summary of the method: as §1

LCLC-97TM1 = tested on: LCLC-97TM1
Summary of the method: as §1

NCI-H1355 = tested on: NCI-H1355
Summary of the method: as §1

NCI-H1563 = tested on: NCI-H1563
Summary of the method: as §1

NCI-H1651 = tested on: NCI-H1651
Summary of the method: as §1

NCI-H2023 = tested on: NCI-H2023
Summary of the method: as §1

NCI-H2085 = tested on: NCI-H2085
Summary of the method: as §1

NCI-H2087 = tested on: NCI-H2087
Summary of the method: as §1

NCI-H2405 = tested on: NCI-H2405
Summary of the method: as §1

NCI-H322M = tested on: NCI-H322M
Summary of the method: as §1

NCI-H520 = tested on: NCI-H520
Summary of the method: as §1

NCI-H650 = tested on: NCI-H650
Summary of the method: as §1

UMC-11 = tested on: UMC-11
Summary of the method: as §1

## NC(=O)Nc1cc(-c2cccc(F)c2)sc1C(=O)N[C@H]1CCCNC1 [AZD7762] + CC(C)C[C@H](NC(=O)[C@H](Cc1ccccc1)NC(=O)c1cnccn1)B(O)O [Bortezomib] (partner 0.002 µM)
ChaGo-K-1; first compound 0.01 µM
  relative viability: 0.861
ChaGo-K-1; first compound 0.03162 µM
  relative viability: 1.01
ChaGo-K-1; first compound 0.1 µM
  relative viability: 0.961
ChaGo-K-1; first compound 0.3162 µM
  relative viability: 0.958
ChaGo-K-1; first compound 1 µM
  relative viability: 0.865
EMC-BAC-2; first compound 0.01 µM
  relative viability: 1.12
EMC-BAC-2; first compound 0.03162 µM
  relative viability: 1.08
EMC-BAC-2; first compound 0.1 µM
  relative viability: 1.09
EMC-BAC-2; first compound 0.3162 µM
  relative viability: 1.15
EMC-BAC-2; first compound 1 µM
  relative viability: 1.12
EPLC-272H; first compound 0.01 µM
  relative viability: 0.81
EPLC-272H; first compound 0.03162 µM
  relative viability: 1.01
EPLC-272H; first compound 0.1 µM
  relative viability: 1.02
EPLC-272H; first compound 0.3162 µM
  relative viability: 0.828
EPLC-272H; first compound 1 µM
  relative viability: 0.992
H3255; first compound 0.01 µM
  relative viability: 0.818
H3255; first compound 0.03162 µM
  relative viability: 0.852
H3255; first compound 0.1 µM
  relative viability: 0.734
H3255; first compound 0.3162 µM
  relative viability: 0.609
H3255; first compound 1 µM
  relative viability: 0.59
HCC-44; first compound 0.01 µM
  relative viability: 0.797
HCC-44; first compound 0.03162 µM
  relative viability: 0.804
HCC-44; first compound 0.1 µM
  relative viability: 0.919
HCC-44; first compound 0.3162 µM
  relative viability: 0.705
HCC-44; first compound 1 µM
  relative viability: 0.862
HCC-827; first compound 0.01 µM
  relative viability: 1.02
HCC-827; first compound 0.03162 µM
  relative viability: 1.05
HCC-827; first compound 0.1 µM
  relative viability: 1.16
HCC-827; first compound 0.3162 µM
  relative viability: 1.08
HCC-827; first compound 1 µM
  relative viability: 0.929
LCLC-103H; first compound 0.01 µM
  relative viability: 1.19
LCLC-103H; first compound 0.03162 µM
  relative viability: 1.08
LCLC-103H; first compound 0.1 µM
  relative viability: 1.25
LCLC-103H; first compound 0.3162 µM
  relative viability: 0.95
LCLC-103H; first compound 1 µM
  relative viability: 0.867
LCLC-97TM1; first compound 0.01 µM
  relative viability: 0.767
LCLC-97TM1; first compound 0.03162 µM
  relative viability: 0.822
LCLC-97TM1; first compound 0.1 µM
  relative viability: 0.737
LCLC-97TM1; first compound 0.3162 µM
  relative viability: 0.335
LCLC-97TM1; first compound 1 µM
  relative viability: 0.634
NCI-H1355; first compound 0.01 µM
  relative viability: 1.17
NCI-H1355; first compound 0.03162 µM
  relative viability: 1.23
NCI-H1355; first compound 0.1 µM
  relative viability: 1.21
NCI-H1355; first compound 0.3162 µM
  relative viability: 1.27
NCI-H1355; first compound 1 µM
  relative viability: 1.19
NCI-H1563; first compound 0.01 µM
  relative viability: 0.843
NCI-H1563; first compound 0.03162 µM
  relative viability: 0.963
NCI-H1563; first compound 0.1 µM
  relative viability: 1.05
NCI-H1563; first compound 0.3162 µM
  relative viability: 0.976
NCI-H1563; first compound 1 µM
  relative viability: 0.746
NCI-H1651; first compound 0.01 µM
  relative viability: 0.945
NCI-H1651; first compound 0.03162 µM
  relative viability: 0.932
NCI-H1651; first compound 0.1 µM
  relative viability: 1.01
NCI-H1651; first compound 0.3162 µM
  relative viability: 0.963
NCI-H1651; first compound 1 µM
  relative viability: 0.686
NCI-H2023; first compound 0.01 µM
  relative viability: 0.82
NCI-H2023; first compound 0.03162 µM
  relative viability: 0.904
NCI-H2023; first compound 0.1 µM
  relative viability: 0.465
NCI-H2023; first compound 0.3162 µM
  relative viability: 0.283
NCI-H2023; first compound 1 µM
  relative viability: 0.104
NCI-H2085; first compound 0.01 µM
  relative viability: 1.11
NCI-H2085; first compound 0.03162 µM
  relative viability: 1.14
NCI-H2085; first compound 0.1 µM
  relative viability: 1.11
NCI-H2085; first compound 0.3162 µM
  relative viability: 1.14
NCI-H2085; first compound 1 µM
  relative viability: 0.887
NCI-H2087; first compound 0.01 µM
  relative viability: 0.88
NCI-H2087; first compound 0.03162 µM
  relative viability: 0.851
NCI-H2087; first compound 0.1 µM
  relative viability: 0.792
NCI-H2087; first compound 0.3162 µM
  relative viability: 0.972
NCI-H2087; first compound 1 µM
  relative viability: 1.01
NCI-H2405; first compound 0.01 µM
  relative viability: 0.933
NCI-H2405; first compound 0.03162 µM
  relative viability: 0.982
NCI-H2405; first compound 0.1 µM
  relative viability: 0.963
NCI-H2405; first compound 0.3162 µM
  relative viability: 0.943
NCI-H2405; first compound 1 µM
  relative viability: 0.796
NCI-H322M; first compound 0.01 µM
  relative viability: 1.09
NCI-H322M; first compound 0.03162 µM
  relative viability: 1.26
NCI-H322M; first compound 0.1 µM
  relative viability: 1.36
NCI-H322M; first compound 0.3162 µM
  relative viability: 1.39
NCI-H322M; first compound 1 µM
  relative viability: 1.33
NCI-H520; first compound 0.01 µM
  relative viability: 0.471
NCI-H520; first compound 0.03162 µM
  relative viability: 0.659
NCI-H520; first compound 0.1 µM
  relative viability: 0.525
NCI-H520; first compound 0.3162 µM
  relative viability: 0.27
NCI-H520; first compound 1 µM
  relative viability: 0.289
NCI-H650; first compound 0.01 µM
  relative viability: 0.851
NCI-H650; first compound 0.03162 µM
  relative viability: 0.892
NCI-H650; first compound 0.1 µM
  relative viability: 0.772
NCI-H650; first compound 0.3162 µM
  relative viability: 0.687
NCI-H650; first compound 1 µM
  relative viability: 0.767
UMC-11; first compound 0.01 µM
  relative viability: 0.692
UMC-11; first compound 0.03162 µM
  relative viability: 0.585
UMC-11; first compound 0.1 µM
  relative viability: 0.409
UMC-11; first compound 0.3162 µM
  relative viability: 0.632
UMC-11; first compound 1 µM
  relative viability: 0.435
